Source: PubChem BioAssay (NCI)
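Tested at 5 concentrations; 48 h exposure; 96-well plates; endpoints linearly interpolated, else capped at highest concentration. TGI: total growth inhibition.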

Key:
Test in all cases: NCI tumour cell line growth inhibition, 48 h
[1] = test system: UO-31 renal
[2] = test system: SF-295 CNS
[3] = test system: NCI-H226 lung
[4] = test system: UACC-257 melanoma
[5] = test system: U251 CNS
[6] = test system: SW-620 colon
[7] = test system: T-47D breast
[8] = test system: A549 NSCLC
[9] = test system: TK-10 renal
[10] = test system: 786-0 renal
[11] = test system: OVCAR-8 ovarian
[12] = test system: MDA-MB-231 breast
[13] = test system: SF-539 CNS
[14] = test system: SN12C renal
[15] = test system: DU-145 prostate
[16] = test system: RXF 393 renal
[17] = test system: MOLT-4 leukemia
[18] = test system: OVCAR-3 ovarian
[19] = test system: KM12 colon
[20] = test system: RPMI-8226 leukemia
[21] = test system: A498 renal
[22] = test system: HL-60(TB) leukemia
[23] = test system: COLO 205 colon
[24] = test system: MDA-MB-435
[25] = test system: MDA-N
[26] = test system: SNB-19 CNS
[27] = test system: OVCAR-4 ovarian
[28] = test system: K-562 leukemia
[29] = test system: SR leukemia
[30] = test system: HOP-62 NSCLC
[31] = test system: LOX IMVI melanoma
[32] = test system: BT-549 breast
[33] = test system: NCI-H23 lung
[34] = test system: SK-MEL-28 melanoma
[35] = test system: HS 578T breast
[36] = test system: SF-268 CNS
[37] = test system: SK-MEL-5 melanoma
[38] = test system: CCRF-CEM leukemia
[39] = test system: UACC-62 melanoma
[40] = test system: HCT-15 colon
[41] = test system: SNB-75 CNS
[42] = test system: HOP-92 NSCLC
[43] = test system: PC-3 prostate
[44] = test system: MCF7 breast
[45] = test system: IGROV1 ovarian
[46] = test system: HT29 colon
[47] = test system: SK-MEL-2 melanoma
[48] = test system: CAKI-1 renal
[49] = test system: NCI-H460 lung
[50] = test system: NCI/ADR-RES ovarian
[51] = test system: MALME-3M melanoma
[52] = test system: SK-OV-3 ovarian
[53] = test system: ACHN renal
[54] = test system: M14 melanoma
[55] = test system: EKVX NSCLC
[56] = test system: OVCAR-5 ovarian
[57] = test system: HCC-2998 colon
[58] = test system: HCT-116 colon
[59] = test system: NCI-H522 lung
[60] = test system: DMS 273 small cell lung
[61] = test system: KM20L2 colon
[62] = test system: DLD-1 colon
[63] = test system: DMS 114 small cell lung
[64] = test system: LXFL 529 NSCLC
[65] = test system: SNB-78 CNS
[66] = test system: M19-MEL melanoma

## CC(C)CCCC(C)[C@H]1CC[C@H]2N=C(Nc3ccccc3)CCC[C@]12C (stereo partly drawn)
[1]
  TGI: 3.12 µM
[2]
  TGI: 3.1 µM
[3]
  TGI: 3.72 µM
[4]
  TGI: 4.85 µM
[5]
  TGI: 4.33 µM
[6]
  TGI: > 100 µM
[7]
  TGI: 14.2 µM
[8]
  TGI: 14.5 µM
[9]
  TGI: 9.33 µM
[10]
  TGI: 3.45 µM
[11]
  TGI: 3.66 µM
[12]
  TGI: 3.04 µM
[13]
  TGI: 3.28 µM
[14]
  TGI: 3.48 µM
[15]
  TGI: > 100 µM
[16]
  TGI: 2.98 µM
[17]
  TGI: 3.97 µM
[18]
  TGI: 6.8 µM
[19]
  TGI: > 100 µM
[20]
  TGI: 4.8 µM
[21]
  TGI: 10.8 µM
[22]
  TGI: 4.7 µM
[23]
  TGI: 2.67 µM
[24]
  TGI: 3.75 µM
[25]
  TGI: 10.9 µM
[26]
  TGI: 17.1 µM
[27]
  TGI: 14.4 µM
[28]
  TGI: 3.55 µM
[29]
  TGI: 4.33 µM
[30]
  TGI: 6.12 µM
[31]
  TGI: 4.07 µM
[32]
  TGI: 7.66 µM
[33]
  TGI: 4.25 µM
[34]
  TGI: 3.89 µM
[35]
  TGI: 5.81 µM
[36]
  TGI: 7.17 µM
[37]
  TGI: 3 µM
[38]
  TGI: 25.3 µM
[39]
  TGI: 3.46 µM
[40]
  TGI: 4.68 µM
[41]
  TGI: 3.99 µM
[42]
  TGI: 9.42 µM
[43]
  TGI: > 100 µM
[44]
  TGI: 3.57 µM
[45]
  TGI: 3.34 µM
[46]
  TGI: 4.09 µM
[47]
  TGI: 3.2 µM
[48]
  TGI: 7.07 µM
[49]
  TGI: 3.92 µM
[50]
  TGI: 3.32 µM
[51]
  TGI: 6.39 µM
[52]
  TGI: 4.11 µM

## NS(=O)(=O)c1cc(S(N)(=O)=O)c(NC(=O)N(c2ccccc2)c2ccccc2)c(Cl)c1Cl
[1]
  TGI: 94.1 µM
[53]
  TGI: 76.5 µM
[2]
  TGI: 95.9 µM
[3]
  TGI: 53.7 µM
[4]
  TGI: 27.6 µM
[5]
  TGI: > 100 µM
[6]
  TGI: > 100 µM
[8]
  TGI: > 100 µM
[9]
  TGI: > 100 µM
[10]
  TGI: > 100 µM
[11]
  TGI: 34.2 µM
[12]
  TGI: > 100 µM
[14]
  TGI: 57.6 µM
[17]
  TGI: 42 µM
[18]
  TGI: 49.4 µM
[19]
  TGI: 57.1 µM
[20]
  TGI: 44.6 µM
[22]
  TGI: 52 µM
[23]
  TGI: 42.2 µM
[24]
  TGI: 67.2 µM
[25]
  TGI: 88.5 µM
[26]
  TGI: > 100 µM
[27]
  TGI: > 100 µM
[28]
  TGI: 81.4 µM
[29]
  TGI: 43.1 µM
[31]
  TGI: 25 µM
[32]
  TGI: 36.1 µM
[33]
  TGI: 58.2 µM
[34]
  TGI: > 100 µM
[35]
  TGI: 44.9 µM
[36]
  TGI: > 100 µM
[54]
  TGI: 51.4 µM
[37]
  TGI: 33.1 µM
[38]
  TGI: 25.7 µM
[55]
  TGI: 62.8 µM
[56]
  TGI: > 100 µM
[39]
  TGI: 93.2 µM
[40]
  TGI: > 100 µM
[42]
  TGI: 27 µM
[43]
  TGI: > 100 µM
[44]
  TGI: > 100 µM
[45]
  TGI: 25.6 µM
[46]
  TGI: 48.2 µM
[57]
  TGI: 35.3 µM
[47]
  TGI: 82.7 µM
[58]
  TGI: > 100 µM
[48]
  TGI: 65.2 µM
[49]
  TGI: > 100 µM
[50]
  TGI: 54.4 µM
[52]
  TGI: 65.3 µM
[59]
  TGI: 27.1 µM

## CCOc1ccc(-c2oc(/C=N/NS(=O)(=O)c3ccc(C)cc3)c([N+](=O)[O-])c2-c2ccc(OCC)cc2)cc1
[1]
  TGI: 28.7 µM
[53]
  TGI: 23.7 µM
[2]
  TGI: 38.4 µM
[3]
  TGI: 28.4 µM
[4]
  TGI: 45 µM
[5]
  TGI: 21.2 µM
[6]
  TGI: 7.76 µM
[8]
  TGI: 65.6 µM
[60]
  TGI: 23 µM
[9]
  TGI: 70.3 µM
[10]
  TGI: 29.7 µM
[11]
  TGI: 50 µM
[13]
  TGI: 30.7 µM
[14]
  TGI: 27.5 µM
[16]
  TGI: 29.3 µM
[17]
  TGI: > 24.8 µM
[18]
  TGI: 43.3 µM
[19]
  TGI: 25.3 µM
[20]
  TGI: 5.12 µM
[61]
  TGI: 31.9 µM
[21]
  TGI: 41.4 µM
[22]
  TGI: > 52.9 µM
[23]
  TGI: 37.2 µM
[26]
  TGI: 43.1 µM
[27]
  TGI: 25.4 µM
[28]
  TGI: > 56.3 µM
[30]
  TGI: > 64.3 µM
[31]
  TGI: 12.6 µM
[33]
  TGI: 31.4 µM
[34]
  TGI: 28.3 µM
[62]
  TGI: 17.6 µM
[36]
  TGI: 50.5 µM
[54]
  TGI: 27.7 µM
[63]
  TGI: 12 µM
[37]
  TGI: 21.2 µM
[38]
  TGI: 8.04 µM
[55]
  TGI: 80 µM
[56]
  TGI: 24.1 µM
[64]
  TGI: 26.6 µM
[39]
  TGI: 26 µM
[40]
  TGI: 18.4 µM
[41]
  TGI: 35.2 µM
[42]
  TGI: 31.5 µM
[45]
  TGI: 32.3 µM
[46]
  TGI: 20.7 µM
[57]
  TGI: 31.1 µM
[47]
  TGI: 44.8 µM
[58]
  TGI: 3.92 µM
[48]
  TGI: 43.1 µM
[49]
  TGI: 29.7 µM
[65]
  TGI: 34.6 µM
[66]
  TGI: 13.3 µM
[51]
  TGI: 37.1 µM
[52]
  TGI: 42.7 µM
[59]
  TGI: 20.6 µM
